Reference: PubChem BioAssay (NCI)
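Results reflect a 48-hour exposure of cells in 96-well plates to compound at five concentrations. TGI marks complete inhibition of growth.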

What was measured:
Experiment in all cases: growth of human tumour cells (NCI), 48 h
786-0 renal = system: 786-0 renal
CAKI-1 renal = system: CAKI-1 renal
NCI-H460 lung = system: NCI-H460 lung
UACC-62 melanoma = system: UACC-62 melanoma
NCI-H23 lung = system: NCI-H23 lung
SW-620 colon = system: SW-620 colon
HCT-15 colon = system: HCT-15 colon
M14 melanoma = system: M14 melanoma
RXF 393 renal = system: RXF 393 renal
NCI/ADR-RES ovarian = system: NCI/ADR-RES ovarian
IGROV1 ovarian = system: IGROV1 ovarian

`CC1(C)CCC[C@@]2(C)C1CC[C@@]1(CO1)[C@@H]2/C=C\C(C=O)CC=O` (stereo partly drawn) was tested, and the TGI (786-0 renal) was over 100 µM, the TGI (CAKI-1 renal) was over 100 µM and the TGI (NCI-H460 lung) was over 100 µM. The TGI (UACC-62 melanoma) was over 100 µM, the TGI (NCI-H23 lung) was over 100 µM and the TGI (SW-620 colon) was over 100 µM. The TGI (HCT-15 colon) was over 100 µM, the TGI (M14 melanoma) was over 100 µM and the TGI (RXF 393 renal) was over 100 µM. It also gave a TGI (NCI/ADR-RES ovarian) of over 100 µM and a TGI (IGROV1 ovarian) of over 100 µM.
`O=C(CCN1CCCC1)c1ccc(Oc2ccc(F)cc2)cc1` showed a TGI (786-0 renal) of 31.8 µM, a TGI (CAKI-1 renal) of 30.1 µM and a TGI (NCI-H460 lung) of over 100 µM. The TGI (UACC-62 melanoma) was over 100 µM, the TGI (NCI-H23 lung) was over 100 µM and the TGI (SW-620 colon) was over 100 µM. The TGI (HCT-15 colon) was over 100 µM, the TGI (M14 melanoma) was 99.5 µM and the TGI (RXF 393 renal) was 74.4 µM. It also gave a TGI (NCI/ADR-RES ovarian) of over 100 µM and a TGI (IGROV1 ovarian) of over 100 µM.
In the case of `Cc1ccc(CN2CCN(Cc3ccc(C)o3)C(C)C2)o1` (stereo not drawn), the TGI (786-0 renal) is reported as over 100 µM, the TGI (CAKI-1 renal) is reported as over 100 µM and the TGI (NCI-H460 lung) is reported as over 100 µM. It also gave a TGI (UACC-62 melanoma) of over 100 µM, a TGI (NCI-H23 lung) of over 100 µM and a TGI (SW-620 colon) of over 100 µM. It also gave a TGI (HCT-15 colon) of over 100 µM, a TGI (M14 melanoma) of over 100 µM and a TGI (RXF 393 renal) of over 100 µM. It also gave a TGI (NCI/ADR-RES ovarian) of over 100 µM and a TGI (IGROV1 ovarian) of over 100 µM.
`COc1cc(C(=O)OC2CC34CCNC35CC(OC5(OC)C2O)c2cc3c(cc24)OCO3)ccc1O` (stereo not drawn) showed a TGI (786-0 renal) of over 100 µM, a TGI (CAKI-1 renal) of over 100 µM and a TGI (NCI-H460 lung) of over 100 µM. For the same compound, the TGI (UACC-62 melanoma) was over 100 µM, the TGI (NCI-H23 lung) was over 100 µM and the TGI (SW-620 colon) was over 100 µM. The TGI (HCT-15 colon) was over 100 µM, the TGI (M14 melanoma) was over 100 µM and the TGI (RXF 393 renal) was over 100 µM. For the same compound, the TGI (NCI/ADR-RES ovarian) was over 100 µM and the TGI (IGROV1 ovarian) was over 100 µM.
For `CC1=NNC(=O)C1C1C=C(c2c[nH]c3ccccc23)OC1=O` (stereo not drawn), the TGI (786-0 renal) was over 100 µM, the TGI (CAKI-1 renal) was over 100 µM and the TGI (NCI-H460 lung) was over 100 µM. For the same compound, the TGI (UACC-62 melanoma) was over 100 µM, the TGI (NCI-H23 lung) was over 100 µM and the TGI (SW-620 colon) was over 100 µM. The TGI (HCT-15 colon) was over 100 µM, the TGI (M14 melanoma) was over 100 µM and the TGI (RXF 393 renal) was over 100 µM. The TGI (NCI/ADR-RES ovarian) was over 100 µM and the TGI (IGROV1 ovarian) was over 100 µM.
`CC(C)(C)NC(=S)N/N=C/c1ccccn1` gave a TGI (786-0 renal) of over 100 µM, a TGI (CAKI-1 renal) of over 100 µM and a TGI (NCI-H460 lung) of over 100 µM. The TGI (UACC-62 melanoma) was 37.3 µM, the TGI (NCI-H23 lung) was over 100 µM and the TGI (SW-620 colon) was over 100 µM. It also gave a TGI (HCT-15 colon) of over 100 µM, a TGI (M14 melanoma) of over 41.9 µM and a TGI (RXF 393 renal) of over 100 µM. It also gave a TGI (NCI/ADR-RES ovarian) of over 100 µM and a TGI (IGROV1 ovarian) of over 100 µM.
`COC(=O)C1=COC2OC3CC1C2C(C)O3` (stereo not drawn) showed a TGI (786-0 renal) of over 100 µM, a TGI (CAKI-1 renal) of over 100 µM and a TGI (NCI-H460 lung) of over 100 µM. For the same compound, the TGI (UACC-62 melanoma) was over 100 µM, the TGI (NCI-H23 lung) was over 100 µM and the TGI (SW-620 colon) was over 100 µM. It also gave a TGI (HCT-15 colon) of over 100 µM, a TGI (M14 melanoma) of over 100 µM and a TGI (RXF 393 renal) of over 100 µM. The TGI (NCI/ADR-RES ovarian) was over 100 µM and the TGI (IGROV1 ovarian) was over 100 µM.
Compound `Cc1ccc(O)c(C2=NNC(c3cccc(Cl)c3)C2)c1` (stereo not drawn) has a TGI (786-0 renal) of over 100 µM, a TGI (CAKI-1 renal) of over 100 µM and a TGI (NCI-H460 lung) of over 100 µM. It also gave a TGI (UACC-62 melanoma) of over 100 µM, a TGI (NCI-H23 lung) of over 100 µM and a TGI (SW-620 colon) of over 100 µM. The TGI (HCT-15 colon) was 29.3 µM, the TGI (M14 melanoma) was over 100 µM and the TGI (RXF 393 renal) was 64.6 µM. It also gave a TGI (NCI/ADR-RES ovarian) of over 100 µM and a TGI (IGROV1 ovarian) of 48.8 µM.
With `COC(=O)/C(C#N)=C/c1cc(C(C)(C)C)c(O)c(C(C)(C)C)c1` the TGI (786-0 renal) was 12.2 µM, the TGI (CAKI-1 renal) was over 27.4 µM and the TGI (NCI-H460 lung) was 5.75 µM. The TGI (UACC-62 melanoma) was 15.1 µM, the TGI (NCI-H23 lung) was 12.5 µM and the TGI (SW-620 colon) was 14.5 µM. For the same compound, the TGI (HCT-15 colon) was 13 µM, the TGI (M14 melanoma) was 13.6 µM and the TGI (RXF 393 renal) was 14.8 µM. The TGI (NCI/ADR-RES ovarian) was 9.65 µM and the TGI (IGROV1 ovarian) was over 100 µM.
Compound `Cc1ccc(S(=O)(=O)NNC(=O)Nc2ccc([N+](=O)[O-])cc2)cc1` has a TGI (786-0 renal) of 64.6 µM, a TGI (CAKI-1 renal) of over 100 µM and a TGI (NCI-H460 lung) of 87.6 µM. It also gave a TGI (UACC-62 melanoma) of 98 µM, a TGI (NCI-H23 lung) of over 100 µM and a TGI (SW-620 colon) of over 100 µM. The TGI (HCT-15 colon) was over 100 µM, the TGI (M14 melanoma) was over 100 µM and the TGI (RXF 393 renal) was over 100 µM. The TGI (NCI/ADR-RES ovarian) was over 100 µM and the TGI (IGROV1 ovarian) was over 100 µM.
With `CC(C)CC1NC(=O)CCC(NC(=O)C(Cc2ccc(O)cc2)NC(=O)OCc2ccccc2)C(=O)NC(Cc2ccccc2)C(=O)NC(Cc2ccccc2)NC1=O` (stereo not drawn) the TGI (786-0 renal) was over 100 µM, the TGI (CAKI-1 renal) was over 100 µM and the TGI (NCI-H460 lung) was over 100 µM. For the same compound, the TGI (UACC-62 melanoma) was over 100 µM, the TGI (NCI-H23 lung) was over 100 µM and the TGI (SW-620 colon) was over 100 µM. It also gave a TGI (HCT-15 colon) of over 100 µM, a TGI (M14 melanoma) of over 100 µM and a TGI (RXF 393 renal) of over 100 µM. The TGI (NCI/ADR-RES ovarian) was over 100 µM and the TGI (IGROV1 ovarian) was over 100 µM.
`COc1cc(-c2ccccc2)cn2c1nc1ccccc12` was tested, and the TGI (786-0 renal) was 34.7 µM, the TGI (CAKI-1 renal) was 52.3 µM and the TGI (NCI-H460 lung) was 49.4 µM. The TGI (UACC-62 melanoma) was 43.9 µM, the TGI (NCI-H23 lung) was over 100 µM and the TGI (SW-620 colon) was over 100 µM. The TGI (HCT-15 colon) was 43.2 µM, the TGI (M14 melanoma) was 43.4 µM and the TGI (RXF 393 renal) was 34.6 µM. The TGI (NCI/ADR-RES ovarian) was 66.7 µM and the TGI (IGROV1 ovarian) was 55.9 µM.
In the case of `COc1nc2c(c(=O)[nH]1)N=C(c1ccc(Cl)cc1)CC(c1ccccc1)N2` (stereo not drawn), the TGI (786-0 renal) is reported as over 100 µM, the TGI (CAKI-1 renal) is reported as 66.2 µM and the TGI (NCI-H460 lung) is reported as 69.3 µM. The TGI (UACC-62 melanoma) was 46.6 µM, the TGI (NCI-H23 lung) was over 100 µM and the TGI (SW-620 colon) was over 100 µM. It also gave a TGI (HCT-15 colon) of 64.6 µM, a TGI (M14 melanoma) of 43 µM and a TGI (RXF 393 renal) of 61.4 µM. It also gave a TGI (NCI/ADR-RES ovarian) of 75.4 µM and a TGI (IGROV1 ovarian) of over 100 µM.
`COc1cc(OC)nc(-n2c(N)c(C(=O)O)c3ccc([N+](=O)[O-])cc3c2=O)n1` showed a TGI (786-0 renal) of over 100 µM, a TGI (CAKI-1 renal) of over 100 µM and a TGI (NCI-H460 lung) of over 100 µM. For the same compound, the TGI (UACC-62 melanoma) was over 100 µM, the TGI (NCI-H23 lung) was over 100 µM and the TGI (SW-620 colon) was over 100 µM. It also gave a TGI (HCT-15 colon) of over 100 µM, a TGI (M14 melanoma) of over 100 µM and a TGI (RXF 393 renal) of over 100 µM. For the same compound, the TGI (NCI/ADR-RES ovarian) was over 100 µM and the TGI (IGROV1 ovarian) was over 100 µM.
`COC(=O)CNC(=O)CSc1nnc(COc2ccc(Cl)cc2)n1-c1ccccc1` gave a TGI (786-0 renal) of 31.4 µM, a TGI (CAKI-1 renal) of 32.2 µM and a TGI (NCI-H460 lung) of over 100 µM. For the same compound, the TGI (UACC-62 melanoma) was over 100 µM, the TGI (NCI-H23 lung) was over 100 µM and the TGI (SW-620 colon) was over 100 µM. It also gave a TGI (HCT-15 colon) of over 100 µM, a TGI (M14 melanoma) of over 100 µM and a TGI (RXF 393 renal) of 51.1 µM. It also gave a TGI (NCI/ADR-RES ovarian) of over 100 µM and a TGI (IGROV1 ovarian) of 54 µM.
`O=Cc1ccc(-c2ccc(S(=O)(=O)O)cc2)o1` gave a TGI (786-0 renal) of over 100 µM, a TGI (CAKI-1 renal) of over 100 µM and a TGI (NCI-H460 lung) of over 100 µM. The TGI (UACC-62 melanoma) was over 100 µM, the TGI (NCI-H23 lung) was over 100 µM and the TGI (SW-620 colon) was over 100 µM. For the same compound, the TGI (HCT-15 colon) was over 100 µM, the TGI (M14 melanoma) was over 100 µM and the TGI (RXF 393 renal) was over 100 µM. For the same compound, the TGI (NCI/ADR-RES ovarian) was over 100 µM and the TGI (IGROV1 ovarian) was over 100 µM.
In the case of `COC(=O)[C@@H]1[C@H]2CC[C@]3(C)[C@@H](OC(C)=O)CC[C@H]3[C@@H]2CC[C@H]1C(C)=O`, the TGI (786-0 renal) is reported as over 100 µM, the TGI (CAKI-1 renal) is reported as over 100 µM and the TGI (NCI-H460 lung) is reported as over 100 µM. For the same compound, the TGI (UACC-62 melanoma) was over 100 µM, the TGI (NCI-H23 lung) was over 100 µM and the TGI (SW-620 colon) was over 100 µM. For the same compound, the TGI (HCT-15 colon) was over 100 µM, the TGI (M14 melanoma) was over 100 µM and the TGI (RXF 393 renal) was over 100 µM. The TGI (NCI/ADR-RES ovarian) was over 100 µM and the TGI (IGROV1 ovarian) was over 100 µM.
`C=CCN1C(=O)CS/C1=N\NC(=O)CSc1nc2ccccc2c(=O)n1CC` gave a TGI (786-0 renal) of over 100 µM, a TGI (CAKI-1 renal) of over 100 µM and a TGI (NCI-H460 lung) of 44.4 µM. The TGI (UACC-62 melanoma) was over 100 µM, the TGI (NCI-H23 lung) was over 100 µM and the TGI (SW-620 colon) was over 100 µM. The TGI (HCT-15 colon) was over 100 µM, the TGI (M14 melanoma) was over 100 µM and the TGI (RXF 393 renal) was over 100 µM. For the same compound, the TGI (NCI/ADR-RES ovarian) was over 100 µM and the TGI (IGROV1 ovarian) was over 100 µM.
